The text below walks through data of PMC12010937, “Evaluation of FXR Activity in Pollutants Identified in Sewage Sludge and Subsequent in Vitro and in Vivo Characterization of Metabolic Effects of Triphenyl Phosphate” (Environmental Health Perspectives, 2025).

Values joined by “and” are separate entries in the source; they are usually repeats but may differ in a detail not shown here. Identical values can stand only once.

Data set [1] concerns C57BL/6N mice. As to the kind of experiment: Hepatic triglyceride (TG enzymatic assay kit). The data set is classed as in vivo. Conditions: for Hepatic TG: individual mice. The method, then:
(§1) Male C57BL/6N mice (8 wk of age) were purchased from Beijing Vital River Laboratory Inc. and acclimated to the environment for 2 wk before they were used for experiments. The environment was maintained at 22°C, in a 12-h light/dark cycle with 50%–60% relative humidity and fed standard chow diets. Because the male mice are more sensitive to metabolic disease than female mice and the estrous cycle of female mice may induce variability to the metabolic phenotypes,[50] only male mice were used in this study. Animals were randomly assigned to control or TPHP treatment groups (five mice per group). Mice were exposed to corn oil (control) purchased from Sigma-Aldrich (C8267) or TPHP (dissolved in corn oil) at 10mg/kg or 50mg/kg body weight (BW) by daily oral gavage for 35 d. The administered volume was 5mL/kg BW. The TPHP corn oil solutions for administration were prepared by dissolving the TPHP in corn oil, and the solutions were stored at −20°C and freshly prepared each week. BW was measured every other day during the dosing period. At the end of experiments, the mice were anesthetized with isoflurane, then blood was collected from the retro-orbital sinus via orbital puncture, and then the mice were euthanized by cervical dislocation. The liver was isolated, weighted, and divided into three fractions: one fraction was fixed with 4% neutral-buffered formalin for Oil Red staining; another fraction was frozen in liquid nitrogen and stored at −80°C for the BA targeted analysis, lipidomic analysis, and qPCR analysis; the remaining fraction was embedded with 3% carboxymethylcellulose (CMC) for MSI analysis. The ileum was also isolated, weighted, and stored at −80°C for the BA targeted analysis and qRT-PCR analysis. […]
The TG level in the liver was determined using a triglyceride enzymatic assay kit (Applygen). […] The total BA level in the liver was determined using a Total Bile Acid (TBA) Colorimetric Assay Kit (Elabscience). […] Both the TG and TBA results were normalized by the protein concentration determined by bicinchoninic acid (BCA) method using a BCA kit (Applygen).

In data set [2] the target is T1, human FXR-LBD (GST-FXR-LBD) (Homo sapiens, UniProt Q96RI1).
T1 construct: the human FXR-LBD (residues 234–472) was expressed as a GST fusion protein GST-FXR-LBD; made in house; host or cells: E. coli BL21(DE3)
T1 sequence (Q96RI1 234-472 isoform Q96RI1-2): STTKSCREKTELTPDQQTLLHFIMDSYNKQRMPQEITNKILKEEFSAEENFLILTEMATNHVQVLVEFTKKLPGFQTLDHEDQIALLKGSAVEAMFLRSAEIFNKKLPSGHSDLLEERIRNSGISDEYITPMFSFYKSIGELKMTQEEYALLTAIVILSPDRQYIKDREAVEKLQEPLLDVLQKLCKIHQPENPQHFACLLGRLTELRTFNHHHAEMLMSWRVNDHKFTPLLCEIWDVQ
As to the kind of experiment: HTRF coactivator recruitment assay, agonist mode. The data set is classed as biochemical. Background: Time-resolved FRET reads energy transfer from a long-lived donor to a nearby acceptor.

A further data set deals with PXR. The settings on record: in vitro assays and in silico molecular docking; cited from earlier work.
The next data set deals with PPARγ. Also noted: method as in PMID 34340181. Conditions: in vitro assays and in silico molecular docking; cited from earlier work.
The target in data set [3] is T1, human FXR-LBD (GST-FXR-LBD). As to the kind of experiment: HTRF coactivator recruitment assay, antagonist mode (in the presence of 50 μM CDCA). The data set is classed as biochemical.
The subject of data set [4] is C57BL/6N mice. Description: Serum ALT and AST activities. Conditions: for Serum ALT activity / Serum AST activity: individual mice. It is filed as in vivo. Here is the method: Male C57BL/6N mice (8 wk of age) were purchased from Beijing Vital River Laboratory Inc. and acclimated to the environment for 2 wk before they were used for experiments. The environment was maintained at 22°C, in a 12-h light/dark cycle with 50%–60% relative humidity and fed standard chow diets. Because the male mice are more sensitive to metabolic disease than female mice and the estrous cycle of female mice may induce variability to the metabolic phenotypes,[50] only male mice were used in this study. Animals were randomly assigned to control or TPHP treatment groups (five mice per group). Mice were exposed to corn oil (control) purchased from Sigma-Aldrich (C8267) or TPHP (dissolved in corn oil) at 10mg/kg or 50mg/kg body weight (BW) by daily oral gavage for 35 d. The administered volume was 5mL/kg BW. The TPHP corn oil solutions for administration were prepared by dissolving the TPHP in corn oil, and the solutions were stored at −20°C and freshly prepared each week. BW was measured every other day during the dosing period. At the end of experiments, the mice were anesthetized with isoflurane, then blood was collected from the retro-orbital sinus via orbital puncture, and then the mice were euthanized by cervical dislocation. The liver was isolated, weighted, and divided into three fractions: one fraction was fixed with 4% neutral-buffered formalin for Oil Red staining; another fraction was frozen in liquid nitrogen and stored at −80°C for the BA targeted analysis, lipidomic analysis, and qPCR analysis; the remaining fraction was embedded with 3% carboxymethylcellulose (CMC) for MSI analysis. The ileum was also isolated, weighted, and stored at −80°C for the BA targeted analysis and qRT-PCR analysis. Cecal contents were collected from the cecum of mice for the 16S rRNA gene sequencing analysis. Animal study protocols were approved by the Animal Care and Use Committee of Peking University (approval number: Urban-WanY-1).
Blood samples collected from the mice were incubated in a 37°C water bath for 30 min and then incubated under 4°C for 5 h. After centrifuged at 5,000×g and 4°C for 5 min, the serums were aliquoted and stored at −80°C . The determination of serum alanine transaminase (ALT) and aspartate transaminase (AST) activities in the serum were determined using the commercial kits (E2021, E2023; Applygen).

Data set [5] has as its system C57BL/6N mice. As to the kind of experiment: Oil Red O lipid staining of liver sections. The data set is classed as in vivo. The settings on record: TPHP exposure groups. Here is the method:
as §1, with “dislocation.” for “dislocation. The liver was isolated, weighted, and divided into three fractions: one fraction was fixed with 4% neutral-buffered formalin for Oil Red staining; another fraction was frozen in liquid nitrogen and stored at −80°C for the BA targeted analysis, lipidomic analysis, and qPCR analysis; the remaining fraction was embedded with 3% carboxymethylcellulose (CMC) for MSI analysis. The ileum was also isolated, weighted, and stored at −80°C for the BA targeted analysis and qRT-PCR analysis.”

Where [6] appears, read: TPHP-H: 50 mg/kg daily oral gavage 35 d.
The mark [7] stands for this setting: TPHP-L: 10 mg/kg daily oral gavage 35 d.
Setting [8] is: read-out: Relative antagonist activity (%).

For `O=P(Oc1ccccc1)(Oc1ccccc1)Oc1ccccc1` [TPHP, triphenyl phosphate], the “Hepatic TG concentrations vs control group (in words)” value in the data set with C57BL/6N mice [1] (TPHP exposure groups) is “significantly higher”. Moreover, the “Hepatic TG” value in the data set on C57BL/6N mice [1] (setting [6]) was 731.21 μmol/g prot and 811.79 μmol/g prot and 765.68 μmol/g prot. Moreover, the “Hepatic TG” value with C57BL/6N mice [1] (setting [7]) was 784.11 μmol/g prot and 752.79 μmol/g prot and 725.51 μmol/g prot. For the same molecule, the “Relative activity, agonist mode” value in data set [2] was 0.00%. Further, the “PXR activity reported (in words)” value with PXR was “agonists”. Besides, in the data set on PPARγ, the “PPARγ activity reported (in words)” value was “agonists”. Besides, the activity at 1.95 µM in data set [3] (1.95 μM compound + 50 μM CDCA, replicates, read-out: Relative antagonist activity (%)) worked out at 97.2%. For the same molecule, the activity at 3.9 µM in data set [3] (3.90 μM compound + 50 μM CDCA, replicates, read-out: Relative antagonist activity (%)) amounted to 97.3%. In data set [3] (31.25 μM compound + 50 μM CDCA, replicates, read-out: Relative antagonist activity (%)), the activity at 31.25 µM amounted to 87.3%. For the same molecule, in data set [3] (50 μM compound in the presence of 50 μM CDCA, standardized against positive control DY268 (50 μM = 100%)), the “Relative activity, antagonist mode” value came to 42.69%. For the same molecule, the activity at 62.5 µM in data set [3] (62.50 μM compound + 50 μM CDCA, replicates, read-out: Relative antagonist activity (%)) was 76.5%. Moreover, in data set [3] (250.00 μM compound + 50 μM CDCA, standardized to DMSO and 50 μM CDCA, replicates, read-out: Relative antagonist activity (%)), the activity at 250 µM turned out to be 58.1%. Moreover, the IC50 in data set [3] (read-out: IC50, inhibition of CDCA-induced coactivator recruitment to FXR) amounted to 70.6 µM. In addition, in data set [3] (setting [8]), the activity at 0.98 µM is 99.2%, the activity at 7.8 µM is 95.9%, the activity at 125 µM came out at 64.3% and the activity at […] amounted to 90.6%. For the same molecule, in the data set on C57BL/6N mice [4] (TPHP exposure groups), the “Serum ALT vs control group (in words)” value is “significantly higher” and the “Serum AST vs control group (in words)” value was “higher”. Moreover, in the data set on C57BL/6N mice [4] (setting [6]), the “Serum ALT activity” value was 14.85 and 21.35 and 16.29; the “Serum AST activity” value was 72.41 and 61.71 and 102.89. For the same molecule, in the data set on C57BL/6N mice [4] (setting [7]), the “Serum ALT activity” value is 15.83 and 17.21 and 25.56; the “Serum AST activity” value is 84.28 and 74.46 and 60.21. In the data set with C57BL/6N mice [5], the “Oil Red O staining intensity of liver sections vs control (in words)” value is recorded as “higher”.

For orientation: IC50 means the concentration at which inhibition is half-maximal.
